Measurements as given in ChEMBL document CHEMBL3507680, “University of Dundee, Gates Library screen for HepG2 cell viability”.

experiment: Human HepG2 cell viability assay in 384 well format; assay type: toxicity, cell-based; set-up: dose 125 nL, time 70.5 hour; cytotoxicity at 70.5 h: concentration not given beside the values; conditions: HepG2 cells, read-out: Inhibition

SMILES	cytotoxicity at 70.5 h [%]
CSc1nc2ccsc2c(=O)n1CC(=O)NC1CCCCC1	-6.83
Cc1noc(C)c1C1CCCN1C(=O)CN1C(=O)OC(C)(C)C1=O (stereo unspecified)	26.8
CSCCC(C)(O)CNC(=O)c1ccsc1 (stereo unspecified)	0.568
CC(C)c1nnc(NC(=O)CN2C(=O)c3ccccc3NC2C(C)C)s1 (stereo unspecified)	-13
Cc1csc(CN2C[C@@H]3COC[C@]3(C(=O)NCc3ccco3)C2)n1	14.6
CC(C)(C)c1coc([C@@H]2COCCN2CC2CC2)n1	-0.839
CCOc1ccc(C2CC(=O)NCc3nc(N)sc32)cc1CO (stereo unspecified)	-6.2
COc1ncc(C)cc1NC(=O)CCc1ccccn1	17.6
O=C1CC2(CCN(Cc3ccoc3)CC2)CN1Cc1cc(F)cc(F)c1	-6.12
Cc1nc(CNC(=O)Cn2nc(-c3ccc(F)cc3)oc2=O)cs1	0.339
COc1cccc2c1N(Cc1noc(C(C)(C)C)n1)CCC2	18.5
C[C@@H]1CN(c2nc3c(cc2C(N)=O)CCC3)CC[C@@]1(O)C1CCC1	-12.9
Cc1cnc(C(=O)N2C[C@H]3CN(Cc4cccc(F)c4)C(=O)[C@H]3C2)cn1	10.5
CCN1Cc2c(C(=O)NC)ncn2-c2ccccc2S1(=O)=O	-6.74
CC(C1CCN(Cc2ccc(OC(F)F)cc2)CC1)N1CCOCC1 (stereo unspecified)	-17.4
c1ccc(Cc2cncc(C3CCCN3C3CCOCC3)n2)cc1 (stereo unspecified)	-6.45
COc1cc2cc(C(=O)O)n(C)c2cc1OC	-14.4
O=C(CS(=O)(=O)C1CCCC1)NC1CCc2nccn2C1 (stereo unspecified)	-9.54
O=c1[nH]nc(SCC2CCCCO2)n1C1CC1 (stereo unspecified)	28.8
COCCN1CCC(c2nc3c([nH]2)CC(C)(C)CNC3=O)C1 (stereo unspecified)	10.3
NC(=O)C(NCc1nn(-c2ccccc2)c2c1CCC2)c1ccccc1 (stereo unspecified)	-10.6

SMILES	cytotoxicity at 70.5 h [%]
Cn1nc(CN2CCCC2)c2c1CN(C(=O)Nc1cccc(F)c1)CC2	-7.05
c1cnc(N2CCN(C3CCC[C@@H]4CN(CC5CC5)C[C@H]34)CC2)nc1 (stereo partly specified)	-1.3
COCCNc1ccccc1CNC(=O)C1CCCOC1 (stereo unspecified)	-2.32
CCNc1nc(-c2cccnc2)c(-c2ccnc(NS(C)(=O)=O)n2)s1	-8.33
NC(=O)[C@H]1CCCN1C(=O)c1csc(-c2ccc(C(F)(F)F)cc2)n1	-6.09
COc1cccc(NC(=O)N(CCO)Cc2ccsc2)c1	-3.88
Cc1ccc(C(C(=O)NCc2n[nH]c(N)n2)N(C)C)cc1 (stereo unspecified)	-5.83
CC(C)(C)OC(=O)N[C@@H]1C[C@@H](O)CN(C(=O)c2ccc(F)cc2)C[C@H]1O	-2.5
CC(=O)N(Cc1noc(C)n1)C1CCN(CC2(O)CCCCC2)C1 (stereo unspecified)	-27.3
CNS(=O)(=O)CCNCC1(O)CCCN(CCC2CCCCC2)C1=O (stereo unspecified)	-0.181
CN1CC2(CCCN(c3cnccn3)C2)OC1=O (stereo unspecified)	-9.73
CCCc1nnnn1CC(=O)NCc1cccc(C)c1	-3.35
CN(CC(=O)N(C)C1CC1)C1CCN(c2ccc(Cl)cc2)CC1	24.7
Cc1nc(C)n(CC2CN(Cc3ccncc3)Cc3nccn3C2)n1 (stereo unspecified)	-4.22
COc1ccc(Cl)cc1NCC(=O)N(Cc1ccncc1)C1CC1	15.5
CCCN(Cc1nc(-c2ccoc2)oc1C)CC1CCCO1 (stereo unspecified)	-6
CN(C)c1cccc(C(=O)N2CCCC2c2ncc3c(n2)CCNC3)c1 (stereo unspecified)	-2.08
CCC(O)CN1CCN(C(=O)c2ccn(-c3cccc(F)c3)n2)CC1 (stereo unspecified)	-5.3
COc1cccc(CN2CCC3(CC2)CCN(c2ncc(F)cn2)C3)c1	0.909
CC(C)c1ncc(Cl)c(C(=O)N2CCN(C3CCCC3)CC2)n1	-3.22
Cc1ccccc1CN1C[C@@H]2COC[C@]2(CNC(=O)C2CCC2)C1	-7.13

SMILES	cytotoxicity at 70.5 h [%]
CCc1ccc(-c2noc(Cn3nc(C(N)=O)ccc3=O)n2)cc1	-6.4
O=C(c1cc(C2CC2)nc2onc(-c3ccccc3)c12)N1CC[C@H](O)C1	-4.91
c1cncc(C2COC3(CCN(Cc4nccs4)CC3)C2)c1 (stereo unspecified)	-9.69
Cc1c(C(=O)N2CCCSCC2)nnn1-c1ccccc1Cl	-8.81
CC(C)(C)n1ncc2c1NC(=O)CC2c1cccc(O)c1 (stereo unspecified)	-4.31
CC(O)CCN(C)c1nc2ccccc2c(=O)[nH]1 (stereo unspecified)	-6.49
Cc1nn(C)c2c(NCc3ccccn3)nc(C(C)C)nc12	20.7
CCC(=O)N1C[C@@H]2CCN(c3cnccn3)C[C@@H]2C1	35.4
Cc1ccccc1Oc1ncccc1CNS(=O)(=O)N(C)C	-1.73
CSCCC(=O)N1CCCC1c1ccsc1 (stereo unspecified)	13.3
CCOCC1CN(Cc2ccc(F)cc2)Cc2nn(CC3CC3)cc21 (stereo unspecified)	-17.2
CCc1sc(-c2nnc(CNC(C)Cn3cc(C)cn3)o2)cc1C (stereo unspecified)	5.1
CN1CC(C(=O)NCCc2ccn(-c3ccc(F)cc3)n2)CC1=O (stereo unspecified)	-9.34
CCN(C)C1COC2(CCN(C(=O)c3ccc(Cl)cc3)CC2)C1 (stereo unspecified)	-9.04
COCc1nccc(C2CCCN(Cc3cccc(F)c3)C2)n1 (stereo unspecified)	0.742
Cc1cccc(NC(=O)NC2CCC3(C2)OCCO3)c1Cl (stereo unspecified)	-6.97
CN(CC(=O)NC(C)(C)C)C(=O)C1CC(c2cccc(F)c2)=NO1 (stereo unspecified)	4.91
Cn1cc(C(=O)N2CCCC2c2ccc3c(c2)OCCO3)ccc1=O (stereo unspecified)	-4.05
CN1CCN(c2ncc3c(c2C(=O)O)CCN(C2CCOC2)C3)CC1 (stereo unspecified)	-7.02
O=C1CSC(c2ccsc2)c2c(n(C3CCOCC3)[nH]c2=O)N1 (stereo unspecified)	27.6
CCc1ccccc1NC(=O)NCc1nnc(SC)n1C	-5.85

SMILES	cytotoxicity at 70.5 h [%]
CC(C)c1ocnc1C(=O)N1CCCC(c2ccn[nH]2)C1 (stereo unspecified)	-3.87
COc1ccc2oc(-c3cn(C)nc3C)c(O)c(=O)c2c1	-1.34
O=C(c1ccsc1)N1C[C@H](N2CCOCC2)[C@@H]2OCCC[C@@H]21	-1.61
CC(C)(C)OC(=O)N1CCCCC1C(=O)NCc1cc[nH]n1 (stereo unspecified)	-7.48
COc1cc(CNC(C)Cn2cccn2)cc(Cl)c1OC (stereo unspecified)	-4.38
CCN1CC2(CC1=O)CN(C(=O)c1ccco1)CCN(C(=O)C(C)C)C2 (stereo unspecified)	0.454
Cc1cncc(C2CCCN2CC(N)=O)n1 (stereo unspecified)	-2.96
Cc1ccc2c(n1)N(CCn1cccn1)CCN(C(=O)CC1CC1)C2	-15.3
O=C(CN1CCCc2cc(F)cc(F)c21)Nc1ccc(Br)cn1	-3.51
COCCN(C)C1COC2(CCN(Cc3cccc(F)c3)CC2)C1 (stereo unspecified)	10.1
O=C(c1cccs1)N1CCOCC2(C1)CN(c1ccccc1)C(=O)CO2 (stereo unspecified)	-9.8
CC(C(=O)N(Cc1ccccc1)CC(F)(F)F)S(C)(=O)=O (stereo unspecified)	-5.47
CCn1ncc2c1CCCC2NCc1ccc2c(c1)OCCO2 (stereo unspecified)	4.09
Cc1cccc(C(=O)NCCCN2CCN(c3ccccc3)CC2)c1	7.06
COC[C@@H]1CCCN1C(=O)CCc1c(C)nn(C)c1C	-2.05
Cc1cc(C(=O)N2CCC3(CC(=O)NC3=O)C2)c(-c2ccccc2)o1 (stereo unspecified)	17.4
Cc1cc(C(=O)N2CCN(Cc3ccco3)C(CCO)C2)cc(=O)[nH]1 (stereo unspecified)	21.1
CCOc1ccc(C(=O)N2CCCS2(=O)=O)cc1OC	-4.2
